Experimental data: PubChem BioAssay (NCI)
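All cell lines were grown in 96-well plates and treated with compound for 48 hours. GI50 = concentration required for 50% inhibition of growth. TGI: total growth inhibition.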

What was measured:
Assay in all cases: DTP human tumour cell line panel, 48 h
SK-MEL-28 melanoma = system: SK-MEL-28 melanoma
LOX IMVI melanoma = system: LOX IMVI melanoma
MDA-MB-435 = system: MDA-MB-435
SW-620 colon = system: SW-620 colon
HCT-15 colon = system: HCT-15 colon
SK-MEL-2 melanoma = system: SK-MEL-2 melanoma
HCT-116 colon = system: HCT-116 colon
K-562 leukemia = system: K-562 leukemia
HOP-92 NSCLC = system: HOP-92 NSCLC
M14 melanoma = system: M14 melanoma
UO-31 renal = system: UO-31 renal
T-47D breast = system: T-47D breast
EKVX NSCLC = system: EKVX NSCLC
OVCAR-5 ovarian = system: OVCAR-5 ovarian
CAKI-1 renal = system: CAKI-1 renal
MOLT-4 leukemia = system: MOLT-4 leukemia
NCI-H23 lung = system: NCI-H23 lung
OVCAR-3 ovarian = system: OVCAR-3 ovarian
HT29 colon = system: HT29 colon
MCF7 breast = system: MCF7 breast
UACC-257 melanoma = system: UACC-257 melanoma
HL-60(TB) leukemia = system: HL-60(TB) leukemia
SNB-19 CNS = system: SNB-19 CNS
UACC-62 melanoma = system: UACC-62 melanoma
A549 NSCLC = system: A549 NSCLC
MDA-MB-231 breast = system: MDA-MB-231 breast
NCI-H226 lung = system: NCI-H226 lung
HOP-62 NSCLC = system: HOP-62 NSCLC
NCI-H522 lung = system: NCI-H522 lung
COLO 205 colon = system: COLO 205 colon
SN12C renal = system: SN12C renal
KM12 colon = system: KM12 colon
786-0 renal = system: 786-0 renal
HS 578T breast = system: HS 578T breast
PC-3 prostate = system: PC-3 prostate
NCI-H460 lung = system: NCI-H460 lung
SF-268 CNS = system: SF-268 CNS
RXF 393 renal = system: RXF 393 renal
TK-10 renal = system: TK-10 renal
U251 CNS = system: U251 CNS
SF-295 CNS = system: SF-295 CNS
ACHN renal = system: ACHN renal
OVCAR-8 ovarian = system: OVCAR-8 ovarian
SK-MEL-5 melanoma = system: SK-MEL-5 melanoma
IGROV1 ovarian = system: IGROV1 ovarian
BT-549 breast = system: BT-549 breast

In the case of `CC(=O)NS(=O)(=O)c1ccc(-n2nc(-c3ccccc3)cc2C2=CC(=O)C=CC2=O)cc1`, the GI50 (SK-MEL-28 melanoma) is reported as over 100 µM, the TGI (SK-MEL-28 melanoma) is reported as over 100 µM and the GI50 (LOX IMVI melanoma) is reported as over 100 µM. It also gave a TGI (LOX IMVI melanoma) of over 100 µM, a GI50 (MDA-MB-435) of over 100 µM and a TGI (MDA-MB-435) of over 100 µM. It also gave a GI50 (SW-620 colon) of 36.6 µM, a TGI (SW-620 colon) of over 100 µM and a GI50 (HCT-15 colon) of over 100 µM. The TGI (HCT-15 colon) was over 100 µM, the GI50 (SK-MEL-2 melanoma) was over 100 µM and the TGI (SK-MEL-2 melanoma) was over 100 µM. It also gave a GI50 (HCT-116 colon) of 33.5 µM, a TGI (HCT-116 colon) of over 100 µM and a GI50 (K-562 leukemia) of 57 µM. It also gave a TGI (K-562 leukemia) of over 100 µM, a GI50 (HOP-92 NSCLC) of over 100 µM and a TGI (HOP-92 NSCLC) of over 100 µM. The GI50 (M14 melanoma) was over 100 µM, the TGI (M14 melanoma) was over 100 µM and the GI50 (UO-31 renal) was over 100 µM. It also gave a TGI (UO-31 renal) of over 100 µM, a GI50 (T-47D breast) of over 100 µM and a TGI (T-47D breast) of over 100 µM. The GI50 (EKVX NSCLC) was over 100 µM, the TGI (EKVX NSCLC) was over 100 µM and the GI50 (OVCAR-5 ovarian) was over 100 µM. The TGI (OVCAR-5 ovarian) was over 100 µM, the GI50 (CAKI-1 renal) was over 100 µM and the TGI (CAKI-1 renal) was over 100 µM. For the same compound, the GI50 (MOLT-4 leukemia) was 16.4 µM, the TGI (MOLT-4 leukemia) was 73.7 µM and the GI50 (NCI-H23 lung) was over 100 µM. For the same compound, the TGI (NCI-H23 lung) was over 100 µM, the GI50 (OVCAR-3 ovarian) was over 100 µM and the TGI (OVCAR-3 ovarian) was over 100 µM. It also gave a GI50 (HT29 colon) of over 100 µM, a TGI (HT29 colon) of over 100 µM and a GI50 (MCF7 breast) of over 100 µM. It also gave a TGI (MCF7 breast) of over 100 µM, a GI50 (UACC-257 melanoma) of over 100 µM and a TGI (UACC-257 melanoma) of over 100 µM. It also gave a GI50 (HL-60(TB) leukemia) of over 100 µM, a TGI (HL-60(TB) leukemia) of over 100 µM and a GI50 (SNB-19 CNS) of over 100 µM. It also gave a TGI (SNB-19 CNS) of over 100 µM, a GI50 (UACC-62 melanoma) of over 100 µM and a TGI (UACC-62 melanoma) of over 100 µM. The GI50 (A549 NSCLC) was over 100 µM, the TGI (A549 NSCLC) was over 100 µM and the GI50 (MDA-MB-231 breast) was over 100 µM. The TGI (MDA-MB-231 breast) was over 100 µM, the GI50 (NCI-H226 lung) was over 100 µM and the TGI (NCI-H226 lung) was over 100 µM. The GI50 (HOP-62 NSCLC) was over 100 µM, the TGI (HOP-62 NSCLC) was over 100 µM and the GI50 (NCI-H522 lung) was over 100 µM. For the same compound, the TGI (NCI-H522 lung) was over 100 µM, the GI50 (COLO 205 colon) was over 100 µM and the TGI (COLO 205 colon) was over 100 µM. The GI50 (SN12C renal) was over 100 µM, the TGI (SN12C renal) was over 100 µM and the GI50 (KM12 colon) was over 100 µM. For the same compound, the TGI (KM12 colon) was over 100 µM, the GI50 (786-0 renal) was 54.4 µM and the TGI (786-0 renal) was over 100 µM. It also gave a GI50 (HS 578T breast) of 22.3 µM, a TGI (HS 578T breast) of over 100 µM and a GI50 (PC-3 prostate) of over 100 µM. It also gave a TGI (PC-3 prostate) of over 100 µM, a GI50 (NCI-H460 lung) of over 100 µM and a TGI (NCI-H460 lung) of over 100 µM. It also gave a GI50 (SF-268 CNS) of over 100 µM, a TGI (SF-268 CNS) of over 100 µM and a GI50 (RXF 393 renal) of over 100 µM. The TGI (RXF 393 renal) was over 100 µM, the GI50 (TK-10 renal) was 75.4 µM and the TGI (TK-10 renal) was over 100 µM. It also gave a GI50 (U251 CNS) of over 100 µM, a TGI (U251 CNS) of over 100 µM and a GI50 (SF-295 CNS) of over 100 µM. It also gave a TGI (SF-295 CNS) of over 100 µM, a GI50 (ACHN renal) of over 100 µM and a TGI (ACHN renal) of over 100 µM. For the same compound, the GI50 (OVCAR-8 ovarian) was over 100 µM, the TGI (OVCAR-8 ovarian) was over 100 µM and the GI50 (SK-MEL-5 melanoma) was 44.2 µM. For the same compound, the TGI (SK-MEL-5 melanoma) was over 100 µM, the GI50 (IGROV1 ovarian) was over 100 µM and the TGI (IGROV1 ovarian) was over 100 µM. For the same compound, the GI50 (BT-549 breast) was 48.9 µM and the TGI (BT-549 breast) was over 100 µM.
